Data published in patent publication US4889860A (Nova Pharmaceutical Corporation, priority 1987, dated 1989).

Test system: tail flick response
Assay: radiant heat tail flick analgesia in rats
Type: in vivo, rat
Description: The analgesic properties of the compounds prepared in accordance with Examples III and IV were evaluated in rats using the radiant heat and tail flick paradigm. […] Flick latencies in FIGS. 11-13 were determined at 30 minute intervals through 3.5 h and the data was expressed as a percentage of the maximum possible effect (% MPE). A 15 sec. cut-off latency was used to minimize tissue damage. The values shown are the mean values for 6 rats.
A 15 sec. cut-off latency was used to prevent tissue damage.
The analgesic properties of compounds XXII and XXIII were evaluated in rats using the writhing assay and tail flick paradigm. […] The writhing assay which uses a chemical stimulus to produce pain, is believed to be more sensitive to kappa agonist activity than other measures of analgesia which uses a heat stimulus (Dykstra, L.A. Behavioral Pharmacology: The Current Status, N.Y.: Allan R. Liss. Inc. 1985).

CN1CC[C@]23c4c5ccc(O)c4O[C@H]2[C@@H](O)C=C[C@H]3[C@H]1C5 [Morphine, morphine, reference compound]
ED50, tail flick analgesia (S.C., 30 min): 4.91 µmol/kg
dose producing approximately equal analgesia (S.C., tail flick, through 3.5 hr): ~10.5 µmol/kg
ED50, Antagonism of the Tail-Flick Response in the Rat (Table 7): 2.60 mg/kg
antagonism of tail-flick response to heat (rat): effectively antagonized the tail-flick response to a heat stimulus in the rat
